Results as given in patent publication US20130344026A1, “Dimeric Smac Mimetics” (priority 2009, published 2013).
Where two headings read alike, the source gives them in different places.

Tested on: HCC461
Assay: cell viability assay in HCC461, compound alone
Format: cell-based
[1] = HCC461, HCC461, Tables 15-18, read-out: IC50 (uM) in cell viability assay in HCC461
[2] = HCC461, HCC461 cells, compound alone, read-out: IC50 (uM) in cell viability assay in HCC461
[3] = HCC461, HCC461, Tables 6-9, read-out: IC50 (μM) in cell viability assay in HCC461

IC50 [2] | Structure (SMILES) | IC50 [1] | further results
0.028 µM | CN[C@@H](C)C(=O)N[C@H](C(=O)N1C[C@@H](NC(=O)c2cnc(C(=O)N[C@H]3C[C@@H](C(=O)N[C@@H]4CCCc5ccccc54)N(C(=O)[C@@H](NC(=O)[C@H](C)NC)C(C)(C)C)C3)cn2)C[C@H]1C(=O)N[C@@H]1CCCc2ccccc21)C(C)(C)C [Compound P3-13] |  | 
0.006 µM | C#CC[C@H](NC(=O)[C@H](C)NC)C(=O)N1C[C@@H](NC(=O)c2ccc(C(=O)N[C@H]3C[C@@H](C(=O)N[C@@H]4CCCc5ccccc54)N(C(=O)[C@H](CC#C)NC(=O)[C@H](C)NC)C3)cc2)C[C@H]1C(=O)N[C@@H]1CCCc2ccccc21 [Compound P3-4] |  | 
0.035 µM | CN[C@@H](C)C(=O)N[C@H](C(=O)N1C[C@@H](NC(=O)c2cc(N)cc(C(=O)N[C@H]3C[C@@H](C(=O)NCc4ccc(F)cc4)N(C(=O)[C@@H](NC(=O)[C@H](C)NC)C(C)(C)C)C3)c2)C[C@H]1C(=O)NCc1ccc(F)cc1)C(C)(C)C [Compound P3-71] |  | 
0.053 µM | CN[C@@H](C)C(=O)N[C@H](C(=O)N1C[C@@H](NC(=O)c2cccc(C(=O)N[C@H]3C[C@@H](C(=O)N[C@H](C)c4ccccc4)N(C(=O)[C@@H](NC(=O)[C@H](C)NC)C(C)C)C3)c2)C[C@H]1C(=O)N[C@H](C)c1ccccc1)C(C)C [Compound P3-80] |  | 
0.077 µM | CN[C@@H](CO)C(=O)N[C@H](C(=O)N1C[C@@H](NC(=O)c2cccc(C(=O)N[C@H]3C[C@@H](C(=O)N[C@@H]4CCCc5ccccc54)N(C(=O)[C@@H](NC(=O)[C@H](CO)NC)C(C)(C)C)C3)c2)C[C@H]1C(=O)N[C@@H]1CCCc2ccccc21)C(C)(C)C [Compound P3-86] |  | 
0.025 µM | CC[C@H](C)C(NC(=O)[C@H](C)NC)C(=O)N1C[C@@H](NC(=O)c2cccc(C(=O)N[C@H]3C[C@@H](C(=O)N(C)[C@H](C)c4ccccc4)N(C(=O)C(NC(=O)[C@H](C)NC)[C@@H](C)CC)C3)c2)C[C@H]1C(=O)N(C)C(C)c1ccccc1 (stereo partly drawn) [Compound P3-68] |  | 
0.026 µM | CC[C@@H](C)C(=O)N[C@H](C(=O)N1C[C@@H](NC(=O)c2cccc(C(=O)N[C@H]3C[C@@H](C(=O)NC(c4ccccc4)c4ccccc4)N(C(=O)[C@@H](NC(=O)[C@H](C)NC)C(C)(C)C)C3)c2)C[C@H]1C(=O)NC(c1ccccc1)c1ccccc1)C(C)(C)C [Compound P3-51] |  | 
0.007 µM | CN[C@@H](C)C(=O)N[C@H](C(=O)N1C[C@@H](N2CC(CCCC3CN([C@H]4C[C@@H](C(=O)NC5c6ccccc6-c6ccccc65)N(C(=O)[C@@H](NC(=O)[C@H](C)NC)C(C)(C)C)C4)N=N3)N=N2)C[C@H]1C(=O)NC1c2ccccc2-c2ccccc21)C(C)(C)C (stereo partly drawn) [Compound P3-6] |  | 
0.063 µM | CN[C@@H](C)C(=O)N[C@H](C(=O)N1C[C@@H](NC(=O)c2cc(C(=O)N[C@H]3C[C@@H](C(=O)N[C@H](C)c4ccccc4)N(C(=O)[C@@H](NC(=O)[C@H](C)NC)C(C)C)C3)[nH]n2)C[C@H]1C(=O)N[C@H](C)c1ccccc1)C(C)C [Compound P3-82] |  | 
0.063 µM | CN[C@@H](C)C(=O)N[C@H](C(=O)N1C[C@@H](NC(=O)c2cccc(C(=O)N[C@H]3C[C@@H](C(=O)N[C@H](C)c4ccccc4)N(C(=O)[C@@H](NC(=O)[C@H](C)NC)C(C)(C)C)C3)c2)C[C@H]1C(=O)N[C@H](C)c1ccccc1)C(C)(C)C [Compound P3-50] |  | 

The remaining lines, values behind:

Structure (SMILES) | IC50 [2] | IC50 [1] | further results
CN[C@@H](C)C(=O)N[C@H](C(=O)N1CCC[C@H]1Cn1nnnc1SC(C)(C)C)[C@@H](C)OCC#CC#CCO[C@H](C)[C@H](NC(=O)[C@H](C)NC)C(=O)N1CCC[C@H]1Cn1nnnc1SC(C)(C)C [Compound P2-21] |  | 0.24 µM | 
CN[C@@H](C)C(=O)N[C@H](C(=O)N1CCC[C@H]1C(=O)NC1c2ccccc2-c2ccccc21)[C@@H](C)OCCCCCCO[C@H](C)[C@H](NC(=O)[C@H](C)NC)C(=O)N1CCC[C@H]1C(=O)NC1c2ccccc2-c2ccccc21 [Compound P2-16] |  | 0.03 µM | 
CN[C@@H](C)C(=O)N[C@@H](CCC(=O)O)C(=O)N1C[C@@H](NC(=O)c2cccc(C(=O)N[C@H]3C[C@@H](C(=O)N[C@H](C)c4ccccc4)N(C(=O)[C@@H](NC(=O)[C@H](C)NC)C(C)(C)C)C3)c2)CC1C(=O)N[C@H](C)c1ccccc1 (stereo partly drawn) [Compound 148] |  |  | IC50 [3]: 0.622 µM
CN[C@@H](C)C(=O)N[C@H](C(=O)N[C@H]1C[C@@H](C(=O)N[C@@H]2CCCc3ccccc32)N(C(=O)[C@@H](NC(=O)[C@H](C)NC)C(C)(C)C)C1)C(C)(C)C [Compound 145] |  |  | IC50 [3]: > 30 µM
CN[C@@H](C)C(=O)N[C@H](C(=O)N1C[C@@H](n2cc(CNC(=O)c3cccc(C(=O)NCc4cn([C@H]5C[C@@H](C(=O)N[C@@H]6CCCc7ccccc76)N(C(=O)[C@@H](NC(=O)[C@H](C)NC)C(C)(C)C)C5)nn4)c3)nn2)C[C@H]1C(=O)N[C@@H]1CCCc2ccccc21)C(C)(C)C [Compound P3-7] | 0.007 µM |  | 
CN[C@@H](C)C(=O)N[C@H](C(=O)N1CCC[C@H]1C(=O)N[C@H](CNC(=O)c1ccc(C(=O)NC[C@@H](NC(=O)[C@@H]2CCCN2C(=O)[C@@H](NC(=O)[C@H](C)NC)C(C)(C)C)c2ccccc2)cc1)c1ccccc1)C(C)(C)C [Compound P4-12] |  | 0.038 µM | 
CN[C@@H](C)C(=O)N[C@@H](CC#CC#CC[C@H](NC(=O)[C@H](C)NC)C(=O)N1CCCC[C@H]1C(=O)N[C@@H]1CCCc2ccccc21)C(=O)N1CCCC[C@H]1C(=O)N[C@@H]1CCCc2ccccc21 [Compound 87] |  |  | IC50 [3]: 0.404 µM
CN[C@@H](C)C(=O)N[C@@H](COCC#CC#CCOC[C@H](NC(=O)[C@H](C)NC)C(=O)N1CCCC1C(=O)N[C@@H]1CCCc2ccccc21)C(=O)N1CCCC1C(=O)N[C@@H]1CCCc2ccccc21 (stereo partly drawn) [Compound P2-19] |  | 0.025 µM | 
CCC[C@H](NC)C(=O)N[C@H](C(=O)N1CC[C@H](NC(=O)c2cccc(C(=O)N[C@H]3C[C@@H](C(=O)N[C@@H]4CCCc5ccccc54)N(C(=O)[C@@H](NC(C)[C@H](C)NC)C(C)C)C3)c2)C1)C(C)(C)C (stereo partly drawn) [Compound H-4] |  | 1.69 µM | 
CN[C@@H](C)C(=O)N[C@H](C(=O)N1C[C@@H](NC(=O)c2cccc(C(=O)NCC[C@@H](NC(=O)[C@H](NC(=O)[C@H](N)CO)C(C)C)C(=O)N[C@@H](C)C(C)C)c2)C[C@H]1C(=O)N[C@@H]1CCCc2ccccc21)C(C)(C)C [Compound 139] |  |  | IC50 [3]: 0.849 µM
CN[C@@H](C)C(=O)N[C@@H](CCNC(=O)c1cc(N)cc(C(=O)NCC[C@H](NC(=O)[C@H](C)NC)C(=O)N2CCC[C@H]2C(=O)N[C@@H]2CCCc3ccccc32)c1)C(=O)N1CCC[C@H]1C(=O)N[C@@H]1CCCc2ccccc21 [Compound P2-27] |  | 0.165 µM | 
CCC[C@H](NC(=O)[C@H](C)NC)C(=O)N1C[C@@H](NC(=O)c2cccc(C(=O)N[C@H]3C[C@@H](C(=O)N[C@@H]4CCCc5ccccc54)N(C(=O)[C@@H](NC(=O)[C@H](C)NC)C(C)(C)C)C3)c2)C[C@H]1C(=O)N1CCCCC1 [Compound 141] |  |  | IC50 [3]: 0.109 µM
CN[C@@H](C)C(=O)N[C@@H](CCCCNc1nc(NCCCC[C@H](NC(=O)[C@H](C)NC)C(=O)N2CCC[C@H]2C(=O)N[C@@H]2CCCc3ccccc32)nc(OC)n1)C(=O)N1CCC[C@H]1C(=O)N[C@@H]1CCCc2ccccc21 [Compound P2-32] |  | 0.038 µM | 
CCN[C@@H](C)C(=O)C[C@H](C(=O)N1CCC[C@H]1C(=O)N[C@@H]1CCCc2ccccc21)c1ccc(C#CCO[C@H](C)[C@H](NC(=O)[C@H](C)NC)C(=O)N2CCC[C@H]2C(=O)N[C@@H]2CCCc3ccccc32)cc1 [Compound H-1] |  | 0.0171 µM | 
